Toxic doses and inconclusive results are not listed. No stated cut-off is given here; in the data, active means T/C of 150% or more; inactive means T/C below 125%.
Tested on: L1210 leukemia ip in BDF1 mice, survival T/C
Experiment: NCI In Vivo Anticancer Drug Screen. Data for tumor model L1210 Leukemia (intraperitoneal) in B6D2F1 (BDF1) mice
Details: endpoint: mean survival time, higher = longer survival
Method in brief: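 In this screen, tumor-bearing mice given compound are compared to those given vehicle, and their survival values are reported as a treated-to-control quotient.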

[1] = dose: 25.0 mg/kg/injection, schedule: Q01DX009 (ip), vehicle: saline
[2] = dose: 25.0 mg/kg/injection, schedule: Q04DX003 (ip), vehicle: saline
[3] = dose: 50.0 mg/kg/injection, schedule: Q01DX009 (ip), vehicle: saline
[4] = dose: 50.0 mg/kg/injection, schedule: Q04DX003 (ip), vehicle: saline
[5] = dose: 100.0 mg/kg/injection, schedule: Q04DX003 (ip), vehicle: saline
[6] = dose: 200.0 mg/kg/injection, schedule: Q04DX003 (ip), vehicle: saline
[7] = dose: 400.0 mg/kg/injection, schedule: Q04DX003 (ip), vehicle: saline
[8] = dose: 100.0 mg/kg/injection, schedule: Q01DX009 (ip), vehicle: saline with Tween-80
[9] = dose: 200.0 mg/kg/injection, schedule: Q01DX009 (ip), vehicle: saline with Tween-80

Measured: T/C

CC(C)NNC(=O)C(N)CCC(=O)O (stereo not given)
inactive: [1] 105 % of control | [2] 117 % of control | [3] 91 % of control | [4] 107 % of control | dose: 100.0 mg/kg/injection, schedule: Q01DX009 (ip), vehicle: saline 98 % of control | [5] 91 % of control | dose: 200.0 mg/kg/injection, schedule: Q01DX009 (ip), vehicle: saline 109 % of control | [6] 90 % of control | dose: 400.0 mg/kg/injection, schedule: Q01DX009 (ip), vehicle: saline 118 % of control | [7] 98 % of control

O=c1[nH]cc(S(=O)(=O)Nc2ccccc2)c(=O)[nH]1
inactive: dose: 25.0 mg/kg/injection, schedule: Q01DX001 (ip), vehicle: saline with Tween-80 106 % of control | dose: 50.0 mg/kg/injection, schedule: Q01DX001 (ip), vehicle: saline with Tween-80 103 % of control | dose: 100.0 mg/kg/injection, schedule: Q01DX001 (ip), vehicle: saline with Tween-80 103 % of control

CCOC(=O)c1ccc(NC(=O)Nc2nccs2)cc1
inactive: dose: 88.0 mg/kg/injection, schedule: Q01DX009 (ip), vehicle: saline with Tween-80 113 % of control | [8] 123 % of control | dose: 132.0 mg/kg/injection, schedule: Q01DX009 (ip), vehicle: saline with Tween-80 109 % of control | [9] 122 % of control | dose: 300.0 mg/kg/injection, schedule: Q01DX009 (ip), vehicle: saline with Tween-80 124 % of control

CC(=O)NS(=O)(=O)c1ccc(N)cc1
inactive: [8] 94 % of control | dose: 100.0 mg/kg/injection, schedule: Q04DX003 (ip), vehicle: saline with Tween-80 98 % of control | [9] 94 % of control | dose: 200.0 mg/kg/injection, schedule: Q04DX003 (ip), vehicle: saline with Tween-80 98 % of control | dose: 400.0 mg/kg/injection, schedule: Q01DX009 (ip), vehicle: saline with Tween-80 95 % of control | dose: 400.0 mg/kg/injection, schedule: Q04DX003 (ip), vehicle: saline with Tween-80 100 % of control

CN1CCN(C(c2ccccc2)c2ccc(Cl)cc2)CC1 (stereo not given)
inactive: dose: 6.25 mg/kg/injection, schedule: Q01DX009 (ip), vehicle: saline 102 % of control | dose: 12.5 mg/kg/injection, schedule: Q01DX009 (ip), vehicle: saline 92 % of control | dose: 12.5 mg/kg/injection, schedule: Q04DX003 (ip), vehicle: saline 95 % of control | [1] 94 % of control | [2] 111 % of control | [3] 100 % of control | [4] 90 % of control | [5] 97 % of control

CC(=O)NNc1ccnc(SCc2ccccc2)n1
inactive: dose: 100.0 mg/kg/injection, schedule: Q04DX003 (ip), vehicle: gum acacia 94 % of control | dose: 200.0 mg/kg/injection, schedule: Q04DX003 (ip), vehicle: gum acacia 87 % of control | dose: 400.0 mg/kg/injection, schedule: Q04DX003 (ip), vehicle: gum acacia 94 % of control

CCOc1ccc(N(O)C(C)=O)cc1
inactive: [5] 91 % of control | [6] 100 % of control | [7] 96 % of control

Cc1ncc(CO)c2c1OC1=CCCCC1=C2
inactive: dose: 100.0 mg/kg/injection, schedule: Q04DX002 (ip), vehicle: saline with Tween-80 95 % of control | dose: 200.0 mg/kg/injection, schedule: Q04DX002 (ip), vehicle: saline with Tween-80 92 % of control

— PubChem BioAssay AID248 (DTP/NCI, 2004)
